Laboratory results published in publication PMC10587159, “Biosynthesis and engineering of the nonribosomal peptides with a C-terminal putrescine” (Nature Communications, 2023).
Non-standard residues stand in square brackets, D forms with d. Residues, ends and D or L forms follow the SMILES beside them. *: point of attachment. Myristoyl = CCCCCCCCCCCCCC(=O)*

What was measured:
[1] = Solubility in solvents (observation); type: physicochemical; details: observation in water, methanol, acetonitrile, DMSO
Source text: Putrescine is also a precursor of some specialized compounds, such as industrial polyamide nylon 4,6[33] and siderophore alcaligin[55]. To clarify the function of the Put moiety of glidonins, we synthesized lipopeptide 10a without the Put group.

HepG2 cells = assay: Extracellular and intracellular compound in HepG2 cells (LC-MS); type: in vitro ADME, human; details: HepG2, six-well plates, 5 μg/mL (10,000 ng in total), 3 h, mean of n = 3
Procedure: Comparing the concentration of compounds (7, 10, 10a) in extracellular and intracellular after the HepG2 cell line dealt with compounds. HepG2 cells were plated in six-well plates at a density of 1.5 × 10^5 cells/well and grew overnight. After cell treated with compounds (5 μg/mL) for 3 h, the compounds were extracted with MeOH for cells culture medium and cells separately as followed the reported method. The compounds were quantified by LC‒MS (5%‒95% ACN in 15 min). The cell numbers of HepG2 with the compounds treatments was determined. […]
To determine whether the difference in bioactivity of products (with or without Put moiety) is due to variations in cellular uptake, we treated hepatoma cell line HepG2 with compounds 7 (C12 acyl), 10 (C14 acyl), and 10a (C14 acyl and without Put) (Supplementary Fig. 33c). The cells were treated for 3 h, and then culture medium and cells were extracted separately. LC-MS was used to detect and quantify the compounds.
At lower concentrations (5000 ng/mL, and 10,000 ng in total for each group), and […]
may be contributing to the differences in antitumor activity (Supplementary Fig. 33b).
This could be due to differences in the speed of cellu lar uptake or differences in drug metabolism rate, requiring further experimental investigation.

[2] = tested on: human lung adenocarcinoma cell A549; assay: MTT cytotoxicity assay, A549; type: cell-based
Source text: (§1) The two human acute lymphoblastic leukemia cells K562 and Kasumi, two human breast adenocarcinoma cells MCF7 and MDA-MB-231, human hepatoma cell HepG-2, human lung adenocarcinoma cell A549, human gastric cancer cell SGC-7901, human colon cancer cell HCT-116, human ovarian cancer cell line SKOV3, or human lung epithelial normal cell 2B were obtained from Beyotime Biotechnology and utilized to test the cytotoxicity of compounds by MTT assays as previous study. The anti-inflammatory effect of the compounds was detected by the influence on the increase in the level of nitric oxide caused by lipopolysaccharide (LPS) based on the classic Griess method. RAW 264.7 cells (Shanghai Institutes for Biological Science) were seeded in 96-well plates and incubated for 24 h. Then, cells were treated with compounds 29, 29a, 31, and 31a (0-80 μM) for 30 min, followed by co-treatment with LPS ([…]) for another 24 h. The Nitric Oxide assay kit with Griess reagents (Beyotime, Lot: S0021, Shanghai, China) was used to examine cellular supernatant nitrite accumulation, which represents cellular NO levels. The OD value of 540 nm absorbance was detected with a microplate reader. Their authentication in the laboratory was performed regularly based on morphology and gene/protein expression. The tested micro-organisms including Gram-negative bacteria E. coli ATCC 35218 and Pseudomonas aeruginosa ATCC 27853, and Gram-positive bacteria Staphylococcus aureus ATCC 29213 and B. subtilis ATCC 6633, and fungi Candida albicans, Rhizoctonia solani and Aspergillus fumigatus were treated with different concentrations of compounds (1 μM, 10 μM, 100 μM) using Bauer-Kirby disk diffusion method to evaluate the antimicrobial activities.

[3] = tested on: human lung epithelial normal cell 2B; assay: cells; type: cell-based; details: 24 h
Source text: as §1

[4] = tested on: human hepatoma cell HepG-2; assay: cells; type: cell-based; details: 24 h
Source text: as §1

SMILES: CCCCCCCCCCCCCC(=O)N[C@H](CCSC)C(=O)N[C@H](CC(N)=O)C(=O)N1CCC[C@H]1C(=O)N[C@H](C(=O)N[C@H](Cc1ccccc1)C(=O)N1CCC[C@H]1C(=O)N[C@@H](Cc1c[nH]c2ccccc12)C(=O)N[C@@H](C(=O)N[C@@H](C)C(=O)N[C@H](C)C(=O)N[C@@H](CO)C(=O)N[C@@H](C)C(=O)O)C(C)C)C(C)C [Compound 10a] (Myristoyl-[dM][dN]PV[dF]PW[dV]A[dA]SA-OH)
- solubility in words [1]: soluble only in dimethyl sulfoxide (DMSO)
- Intracellular compound, Average (HepG2 cells; cells extracted with MeOH): 11.984 ng
- Extracellular compound, Average (HepG2 cells; culture medium extracted with MeOH): 7245.41 ng
- IC50 ([2]; 24 h): > 20 µM
- cytotoxic / antitumor activity against A549 in words ([2]; MTT assay): lower than those of 10
- IC50 [3]: > 20 µM
- IC50 [4]: > 20 µM
